Like-named read-outs stand apart in the source and are kept apart here.

This series concerns A549 human lung cancer cells. The settings on record: for more cell killing at 18 MV vs 6 MV: Example 3 conclusion; for increased cell killing at 18 MV compared to 6 MV, on average: cisplatin 4 μg/ml, carboplatin 12 μg/ml (FIG. 4); for cell survival decreased using 18 MV photons compared to 6 MV photons, average of 3 experiments: FIG. 2 and FIG. 4, 2 hours before irradiation with 2 Gy, 100 μM sodium phosphotungstate, 4 μg/ml cisplatin, 12 μg/ml carboplatin; for decreased clonogenic survival at 18 MV compared to 6 MV: Example 2 conclusion. The protocol:
Detailed Methods: The human lung cancer cell line A549 was maintained in tissue culture using standard techniques. A 70% confluent T25 tissue culture flask of A549 in exponential growth phase was trypsinized with 2 mL of 0.05% trypsin solution and deactivated with 3 mL DMEM to produce a 5 mL single cell-suspension. One milliliter of this cell solution was added to 10 mL of DMEM and vortexed to produce a homogenous diluted single cell suspension. Seven 6-well tissue culture plates were prepared with 3 mL of DMEM per well. […] These plates were incubated at 37° C. for 24 hours to allow the cells to settle and the tissue culture wells. The media was then removed from each plate and replaced with: DMEM in 3 plates as non-metal controls (250 cells per well), 100 μM sodium phosphotungstate hydrate DMEM in 2 plates (250 cells per well), 1 mM sodium tungstate dihydrate DMEM in 2 plates (250 cells per well), and 4 μg/mL cisplatin DMEM in 2 plates (1000 cells per well). The media with or without metal compounds was left in the wells to incubate for 1-2 hours prior to irradiation. Six plates were irradiated using a linear accelerator (Varian Trilogy; Varian Corp., Palo Alto, Calif.): one plate each of the DMEM, sodium phosphotungstate hydrate, sodium tungstate dihydrate, and cisplatin were given 209 MU of 6 MV X-rays (2 Gy) and the remaining plates of DMEM, sodium phosphotungstate hydrate, sodium tungstate dihydrate, and cisplatin were irradiated with 239 MU of 18 MV X-rays (2 Gy). The remaining seventh plate was not irradiated and used to calculate plating efficiency of A549. The seven plates then had all media replaced with normal DMEM immediately following irradiation and were incubated for 10 days. When A549 colonies were seen to be equal to or greater than 50 cells by microscopy, the seven plates were stained with crystal violet and counted. The same experiment above was conducted for A549 cells in DMEM media alone with administration of sodium phosphotungstate hydrate after irradiation. Two identical plates were prepared as described above and these were irradiated at 6 or 18 MV in DMEM. The media was removed after irradiation and replaced with 100 μM sodium phosphotungstate hydrate media for one hour before again being replaced with DMEM and incubated for 10 days.
A549 lung cancer cells were used to create nine 6-well plates under standard methods. The media was then removed from each plate and replaced with: DMEM in 3 plates as non-metal controls (250 cells per well), 100 μM sodium phosphotungstate hydrate DMEM in 2 plates (250 cells per well), 12 μg/ml carboplatin DMEM in 2 plates (1000 cells per well), and 4 μg/ml cisplatin DMEM in 2 plates (1000 cells per well) and incubated for 2-4 hours prior to irradiation. Eight plates were irradiated on a linear accelerator: one plate each of the DMEM, tungsten, carboplatin, and cisplatin was given 2 Gy of 6 MV X-rays and one of each was irradiated with 2 Gy of 18 MV X-rays. The remaining plate was not irradiated and used to calculate plating efficiency of A549. The nine plates were incubated for 10 days, stained with crystal violet, and colonies were counted.
In vitro studies were conducted with the A549 cell line, a human lung adenocarcinoma cultured from the tumor of a person by Giard in 1972. Clonogenic survival studies were done without irradiation or metal compound to measure plating efficiency. Cells were then exposed to 100 μM tungsten compound for 4 hours and seeded into 6 well plates. […] 4 identical plates of cells were then created, 2 containing 100 μM tungsten metal and 2 without metal.

Setting [1] is: Example 3, 2 Gy of 6 MV X-rays, incubated 2-4 hours prior to irradiation (100 μM tungsten, 4 μg/ml cisplatin, 12 μg/ml carboplatin).
[2] abbreviates: Example 3, 2 Gy of 18 MV X-rays, incubated 2-4 hours prior to irradiation (100 μM tungsten, 4 μg/ml cisplatin, 12 μg/ml carboplatin).
The mark [3] stands for this setting: Example 2, 2 Gy of 6 MV X-rays, compound in media 1-2 hours prior to irradiation (100 μM sodium phosphotungstate hydrate, 1 mM sodium tungstate dihydrate, 4 μg/mL cisplatin).
Setting [4] is: Example 2, 2 Gy of 18 MV X-rays, compound in media 1-2 hours prior to irradiation (100 μM sodium phosphotungstate hydrate, 1 mM sodium tungstate dihydrate, 4 μg/mL cisplatin).

With `N.N.O=C([O-])C1(C(=O)[O-])CCC1.[Pt+2]` [carboplatin, reference compound], the “cell survival decreased using 18 MV photons compared to 6 MV photons, average of 3 experiments” value (“cell survival decreased” for short) is reported as “approximately 37%”. Under setting [1], the colonies/well is on record as 64 colonies/well and the survival worked out at 16%. Moreover, under setting [2], the colonies/well came to 40 colonies/well and the survival stood at 10%. For the same molecule, the “more cell killing at 18 MV vs 6 MV” value (2 Gy) was 37%. In addition, the “increased cell killing at 18 MV compared to 6 MV, on average” value (Example 4) is on record as “approximately 37%”.
With `N.N.[Cl][Pt][Cl]` [cisplatin, reference compound], the “cell survival decreased” value is on record as “approximately 37%”. Further, under setting [3], the average colonies worked out at 54 colonies and the survival stood at 13%. In addition, under setting [4], the average colonies worked out at 29 colonies and the survival came to 7%. Under “Example 2, 18 MV vs 6 MV, 2 Gy”, the “18 MV result compared to 6 MV, in words” value is listed as “half of that at 6 MV”. Besides, under “2 Gy”, the “decreased clonogenic survival at 18 MV compared to 6 MV” value (from here on “decreased clonogenic survival at 18 MV”) is “approximately 50%” and the “more cell killing at 18 MV vs 6 MV” value is on record as 37%. Besides, under setting [1], the colonies/well was 54 colonies/well and the survival was found to be 13%. Also, under setting [2], the colonies/well was determined as 29 colonies/well and the survival was 7%. Moreover, the “increased cell killing at 18 MV compared to 6 MV, on average” value (Example 4) was “approximately 37%”.
Turning to `O.O.[Na+].[Na+].[O]=[W](=[O])([O-])[O-]` [sodium tungstate dihydrate], under setting [3], the average colonies is 70 colonies and the survival turned out to be 68%. Under setting [4], the average colonies was determined as 21 colonies and the survival turned out to be 20%. In addition, under “Example 2, 18 MV vs 6 MV, 2 Gy, 1 mM”, the “more cell killing compared to 6 MV” value is recorded as “approximately 70%”. In addition, under “2 Gy”, the “decreased clonogenic survival at 18 MV” value is about 70%.
On to sodium phosphotungstate hydrate, for which the “cell survival decreased” value came to 48%. In addition, where the note is “100 μM for 4 hours, no irradiation”, the “survival after drug administration without irradiation” value is recorded as “greater than 95%”. Also, the “cell killing, plates exposed to tungsten after irradiation” value (Example 2, 100 μM for one hour after irradiation, at either 6 or 18 MV) was “approximately 65%”. Under setting [3], the average colonies was 68 colonies and the survival was determined as 66%. For the same molecule, under setting [4], the average colonies came out at 35 colonies and the survival came out at 34%. For the same molecule, the “18 MV result compared to 6 MV, in words” value (Example 2, 18 MV vs 6 MV, 2 Gy) is listed as “double cell kill”. Under “2 Gy”, the “decreased clonogenic survival at 18 MV” value is on record as “approximately 50%” and the “more cell killing at 18 MV vs 6 MV” value is on record as “approximately 50%”. Moreover, under setting [1], the colonies/well amounted to 68 colonies/well and the survival is given as 66%. Further, under setting [2], the colonies/well amounted to 35 colonies/well and the survival stood at 34%. Moreover, where the note is “Example 4, 100 μM, 2 Gy of 18 MV photons”, the “more cell killing compared to 6 MV with or without metal and 18 MV without metal” value is given as “approximately 50%”.
